We go through 4 molecules from ChEMBL document CHEMBL1157597, “Exploring a synthetic organoselenium compound for antioxidant pharmacotherapy--toxicity and effects on ROS-production” (Bioorg Med Chem, 2010).

pIC50: −log10 of the molar value. Activity calls are given as the source filed them. The rule behind the calls is not given here.

The nature of data set [1]: Antioxidant activity against ABTS radicals assessed as trolox equivalents in phosphate buffer of pH 7.4 at 6.08 uM by ABTS assay. Format: functional.
Data set [2] relates to SH-SY5Y. Description: Cytotoxicity against human SH-SY5Y cells assessed as decrease in proliferation up to 200 uM after 7 days by alamar blue assay. Format: cell-based. The following applies: 168 h. Background: Alamar Blue is a resazurin reagent that responds to reducing activity.
Data set [3] relates to HEK293. The data set can be described thus: Cytotoxicity against HEK293 cells assessed as cell death at 60 uM after 7 days by LDH assay. Format: cell-based. The conditions noted are these: human, hek293, 168 h.
Another data set relates to Neutrophil. Description: (§1) Antioxidant activity against ROS-production in human neutrophils by chemiluminescence. Type of data set: functional, cell-based.
The nature of data set [4]: as §1. Type of data set: functional, cell-based. The conditions noted are these: Neutrophil.
Data set [5] concerns SH-SY5Y. The data set can be described thus: Cytotoxicity against human SH-SY5Y cells assessed as cell death at 60 uM after 7 days by LDH assay. Type of data set: cell-based. The following applies: 168 h.
Data set [6] deals with MRC5. The data set can be described thus: Cytotoxicity against human MRC5 cells assessed as plasma membrane damage at 60 uM after 7 days by LDH assay. Format: cell-based. The conditions noted are these: mrc5, 168 h.
A further data set relates to THP-1. Description: Antioxidant activity against ROS-production in PMA-stimulated human THP1 cells by chemiluminescence. Type of data set: cell-based.
Data set [7] relates to Caco-2. Description: Cytotoxicity against human Caco-2 cells assessed as decrease in proliferation up to 200 uM after 7 days by alamar blue assay. Type of data set: cell-based. The following applies: caco-2, 168 h.
Data set [8] has as its system MRC5. Description: Cytotoxicity against human MRC5 cells assessed as cell death at 60 uM after 7 days by LDH assay. Type of data set: cell-based. The following applies: mrc5, 168 h.
The nature of data set [9]: Cytotoxicity against human MG63 cells assessed as cell death at 60 uM after 7 days by LDH assay. Format: cell-based. The following applies: mg-63, 168 h.
Data set [10] is described as follows: Cytotoxicity against human MG63 cells assessed as plasma membrane damage at 60 uM after 7 days by LDH assay. Format: cell-based. The following applies: mg-63, 168 h.
Data set [11] is described as follows: Cytotoxicity against human MG63 cells assessed as decrease in proliferation up to 200 uM after 7 days by alamar blue assay. Format: cell-based. The following applies: mg-63, 168 h.
Data set [12] concerns Caco-2. The data set can be described thus: Cytotoxicity against human Caco-2 cells assessed as plasma membrane damage at 60 uM after 7 days by LDH assay. The conditions noted are these: caco-2, 168 h. Format: cell-based.
Data set [13] deals with HEK293. Description: Cytotoxicity against HEK293 cells assessed as decrease in proliferation up to 200 uM after 7 days by alamar blue assay. Format: cell-based. The conditions noted are these: human, hek293, 168 h.
Data set [14] concerns Caco-2. Description: Cytotoxicity against human Caco-2 cells assessed as cell death at 60 uM after 7 days by LDH assay. Format: cell-based. The conditions noted are these: caco-2, 168 h.
The subject of data set [15] is SH-SY5Y. The data set can be described thus: Cytotoxicity against human SH-SY5Y cells assessed as plasma membrane damage at 60 uM after 7 days by LDH assay. Type of data set: cell-based. The following applies: 168 h.
The test system of data set [16] is MRC5. Description: Cytotoxicity against human MRC5 cells assessed as decrease in proliferation up to 200 uM after 7 days by alamar blue assay. Format: cell-based. The conditions noted are these: mrc5, 168 h.
The subject of data set [17] is HEK293. Description: Cytotoxicity against HEK293 cells assessed as plasma membrane damage at 60 uM after 7 days by LDH assay. Type of data set: cell-based. The following applies: human, hek293, 168 h.

Consider `CC(=O)N[C@@H](CS)C(=O)O`, for which the Activity in data set [1] stood at 2.4.

Turning to `CC1Cc2cc(O)ccc2[Se]1` (stereo unspecified), the outcome in data set [1] was Active. Besides, the Activity entry is “Non-toxic” in the data set with SH-SY5Y [2]; “Non-toxic” in the data set with HEK293 [3]; “Dose-dependent effect” with Neutrophil; “Non-toxic” in the data set with SH-SY5Y [5]; “Non-toxic” in the data set on MRC5 [6]; “Dose-dependent effect” in the data set with THP-1. Also, the Activity result (with Caco-2 [7]; in the data set on MRC5 [8]; in data set [9]; in data set [10]; in data set [11]; in the data set with Caco-2 [12]) was “Non-toxic” in each case. The Activity entry with HEK293 [13], in the data set with Caco-2 [14], with SH-SY5Y [15], in the data set on MRC5 [16] and with HEK293 [17] was “Non-toxic” each time. Also, in data set [4], the negative-log IC50 (pIC50) (commonly −log10 of the IC50, conventionally taken in molar units) is 6.00.

Consider `Cc1c(C)c2c(c(C)c1O)CCC(C)(C(=O)O)O2` (stereo unspecified) [TROLOX], for which the Activity result (with HEK293 [3]; with SH-SY5Y [5]; with MRC5 [6]; with MRC5 [8]; in data set [9]; in data set [10]) was “Non-toxic” throughout. Besides, the Activity entry in the data set on Caco-2 [12], in the data set on Caco-2 [14], in the data set with SH-SY5Y [15] and in the data set on HEK293 [17] was “Non-toxic” each time.

As to `O=C1O[C@H]([C@@H](O)CO)C([O-])=C1O.[Na+]`, the result in [1] was Active.
